Measured values taken from patent US20170029451A1, “BRANCHED CHAIN ACYCLIC NUCLEOSIDE PHOSPHONATE ESTERS AND METHODS OF SYNTHESIS AND USES THEREOF” (CHIMERIX, INC., priority 2013, published 2017).
Where two headings read alike, the source gives them in different places.

What was measured:
[1] = Cytotoxicity (CC50) in MT4 cells; format: cell-based; details: human
Experimental: Costar 96-well tissue culture plates were seeded with 5,000 MT4 cells (NIH AIDS Reagents Program)/well in RPMI (Lonza, Cat 12-11F) containing 10% Hyclone Standard Fetal Bovine Serum (FBS, Cat 5H30088.03), 1% Hyclone Penicillin and Streptomycin (Cat SV30010), and 2 mM Lonza L-Glutamine (Cat 17-605E). Outer wells were not used to minimize the edge-effect produced by extended incubations. Serial dilutions of test compounds were added to the cells and plates were incubated for 6 days at 37° C. in 5% CO2. After 6 days of incubation 40 μL of Cell Titer 96® Aqueous MTS Reagent (Promega, G111) was added as directed by manufacturer to the 200 μL media in each well and incubated at 37° C. until the untreated-cell controls developed an 490 nm absorbance between 1.1 and 1.8. The final absorbance readings were read using a BioTek Synergy 2, and Gen 5 software (BioTek Instruments, Inc.) was used to calculate the concentration which inhibited MT4 cells by 50% (CC50).

HCV = HCV antiviral activity in Huh cells; format: cell-based; details: Hepatitis C virus, cell line Huh
[2] = Cytotoxicity in BCBL-1 cells; format: cell-based; details: human, cell line BCBL-1 (HHV-8 row)
Experimental: (§1) Cell viability in all assays with lymphocytes was assessed with the CellTiter-Glo Luminescent Cell Viability Assay (Promega). Briefly, assay plates were incubated at ambient temperature for 30 min then 50 µl of CellTiter-Glo reagent was added to each well and the plates were mixed for 2 min on an orbital shaker to lyse the cells. Plates were then incubated for an additional 10 min at ambient temperature and the luminescence was quantified on a luminometer. Standard methods were used to calculate drug concentrations that inhibited the proliferation of Akata, HSB-2, BCLB-1, or Molt-3 cells by 50% (CC50).

[3] = tested on: Vaccinia Virus (Strain Copenhagen); assay: microbe, parasite or virus in culture; format: cell-based; details: Orthopoxvirus vaccinia, Fibroblast, read-out: VACV EC50, μM
[4] = tested on: human foreskin fibroblast cells; assay: Neutral red cytotoxicity assay in human foreskin fibroblast cells; details: read-out: VACV CC50, μm, parallel to VACV assay (second printing of Table 4)
[5] = Cytotoxicity in 2.2.15 cells; format: cell-based; details: human, cell line 2.2.15 (HBV row)
[6] = Cytotoxicity (CC50) in Vero cells; format: cell-based; details: African green monkey, cell line Vero (BKV row)
Experimental: Costar 96-well tissue culture plates were seeded with 10,000 Vero cells (ATCC)/well in DMEM (ATCC, Cat 30-2002) containing 2% Hyclone Standard Fetal Bovine Serum (FBS, Cat 5H30088.03) and 1% Hyclone Penicillin and Streptomycin (Cat SV30010). Outer wells were not used to minimize the edge-effect produced by extended incubations. Serial dilutions of test compounds were added to the cells and plates were incubated for 7 days at 37° C. in 5% CO2. After 7 days of incubation 40 μL of Cell Titer 96® Aqueous MTS Reagent (Promega, G111) was added as directed by manufacturer to the 200 iut media in each well and incubated at 37° C. until the untreated-cell controls developed an 490 nm absorbance between 1.1 and 1.8. The final absorbance readings were read using a BioTek Synergy 2, and Gen 5 software (BioTek Instruments, Inc.) was used to calculate the concentration which inhibited Vero cells by 50% (CC50).

[7] = tested on: HCMV UL54 resistant mutant D542E (HDP-CDV^R); assay: microbe, parasite or virus in culture; format: cell-based, Human Cytomegalovirus (HCMV)
in vitro = details: African green monkey
[8] = tested on: Human Cytomegalovirus (HCMV); assay: HCMV EC50 in MRC-5 cells (qPCR of intracellular CMV DNA); format: cell-based
Experimental: Costar 96-well tissue culture plates were seeded with 20,000 MRC-5 cells/well in EMEM containing 2% Hyclone Standard Fetal Bovine Serum and 1% Hyclone Penicillin and Streptomycin. Outer wells were not used to minimize the edge-effect produced by extended incubations. Cells were inoculated with HCMV at an MOI of 0.01. Serial dilutions of test compounds were added to the cells and plates were incubated for 7 days at 37° C. in 5% CO2. […] Culture medium was gently removed from infected cells after the 7-day incubation. The cells were rinsed twice with ice-cold PBS, and then freeze/thawed once. Each well was incubated with 200 μL lysis buffer for 2 hours at 55° C. Lysis buffer included 0.5 mg/mL protease K, 50 mM KCl, 10 mM Tris-Cl pH 8.0, 2.5 mM MgCl2, 0.45% IGEPAL, and 0.45% Tween-20 dissolved in DEPC-treated water. Intracellular CMV DNA was measured by quantitative polymerase chain reaction (qPCR) using forward and reverse HCMV PCR primers, and a FAM-labeled probe. Absolute quantitation of viral copy number was performed using a standard curve with dilutions of a HCMV DNA amplicon containing sequences homologous to the amplified fragment. The following qPCR amplification conditions were used: 1 cycle at 95° C. for 10 minutes, followed by 45 cycles of 95° C. for 15 seconds and 60° C. for 60 seconds. The qPCR reactions were performed using an Applied Biosystems 7500 real Time PCR System. Gen 5 software (BioTek Instruments, Inc.) was used to calculate the concentration which inhibited the viral DNA levels of HCMV-infected MRC-5 cells by 50% (EC50).

[9] = Cytotoxicity in MOLT-3 cells; format: cell-based; details: human, cell line MOLT-3 (HHV-6B row)
Experimental: as §1

[10] = CellTiter-Glo cytotoxicity assay in Akata cells; details: human

CC(C)CCCCCCCCCCCCCCOCCCOP(=O)(O)COC(CO)Cn1ccc(=O)[nH]c1=O (centres unmarked) [Compound 12]
CC50 at 6 days ([1]; MT4 cells (Table 7), read-out: MT4 CC50): 25.6 µM | CC50 at 6 days ([1]; Mean XC50 (Table 9), read-out: MT4 cytotoxicity CC50): 24.7 µM | EC50 (HCV): 0.57 µM | CC50 [2]: > 10 µM | EC50 [3]: > 10 µM | CC50 [4]: > 10 µM | CC50 [5]: 34 µM | CC50 at 7 days [6]: 93 µM | EC50 ([7]; Human betaherpesvirus 5, Fibroblast, read-out: EC50 μM, Virus D542E (HDP-CDV^R), human foreskin fibroblast cells): ~5.41 µM | EC90 ([7]; Human betaherpesvirus 5, Fibroblast, read-out: EC90 μM): > 10 µM | efficacy on UL54 HCMV resistant variants ([7]; effect of mutations in UL54 which reduce efficacy for HDP-CDV): reduced | CC50 (in vitro): 29 µM | EC50 ([8]; Human betaherpesvirus 5, MRC5, HCMV in MRC-5 cells (Table 7), read-out: CMV EC50): 0.027 µM | EC50 ([8]; Human betaherpesvirus 5, MRC5, Mean XC50 (Table 9), read-out: HCMV EC50): 0.017 µM | EC50 ([8]; Human betaherpesvirus 5, Virus HCMV, cell line MRC5 (Table 8), read-out: EC50): 0.017 µM | CC50 [9]: 8.4 µM | CC50 [10]: 18 µM
